# Where two headings read alike, the source gives them in different places.
# Legend:
# α2A adrenergic receptor = target: T1, α2A adrenergic receptor (Homo sapiens, UniProt P08913); test: Radioligand binding assay (Eurofins Cerep), [3H]RX 821002 displacement
# T1 construct: Eurofins Cerep (contract screening)
# T1 sequence (P08913 1-465): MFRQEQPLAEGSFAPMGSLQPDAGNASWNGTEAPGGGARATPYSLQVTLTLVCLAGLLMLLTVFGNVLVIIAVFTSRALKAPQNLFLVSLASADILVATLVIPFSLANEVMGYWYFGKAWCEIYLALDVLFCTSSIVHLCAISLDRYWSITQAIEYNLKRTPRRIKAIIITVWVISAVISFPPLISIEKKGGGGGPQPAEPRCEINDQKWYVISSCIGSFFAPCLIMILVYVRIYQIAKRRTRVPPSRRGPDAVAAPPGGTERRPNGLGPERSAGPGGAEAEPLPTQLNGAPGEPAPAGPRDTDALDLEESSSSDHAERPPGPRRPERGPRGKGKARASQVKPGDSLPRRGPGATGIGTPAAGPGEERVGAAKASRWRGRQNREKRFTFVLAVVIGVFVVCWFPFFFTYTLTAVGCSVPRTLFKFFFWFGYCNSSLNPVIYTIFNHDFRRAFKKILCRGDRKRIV
# hDOR = hDOR (Homo sapiens, UniProt P41143); test: Radioligand binding assay (Eurofins Cerep), [3H]DADLE displacement
# Chain of hDOR (P41143 whole entry): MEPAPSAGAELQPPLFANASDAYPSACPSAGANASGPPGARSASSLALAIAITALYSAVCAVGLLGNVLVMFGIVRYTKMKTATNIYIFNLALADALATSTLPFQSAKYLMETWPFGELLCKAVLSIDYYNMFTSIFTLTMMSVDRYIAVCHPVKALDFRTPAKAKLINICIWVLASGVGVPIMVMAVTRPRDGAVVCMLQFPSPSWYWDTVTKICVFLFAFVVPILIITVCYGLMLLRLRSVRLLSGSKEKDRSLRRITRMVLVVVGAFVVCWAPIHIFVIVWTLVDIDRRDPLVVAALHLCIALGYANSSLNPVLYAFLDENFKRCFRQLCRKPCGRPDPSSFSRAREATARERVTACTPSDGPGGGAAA
# hKOR = hKOR (Homo sapiens, UniProt P41145); test: Radioligand binding assay (Eurofins Cerep), [3H]U69,593 displacement
# Chain of hKOR (P41145 whole entry): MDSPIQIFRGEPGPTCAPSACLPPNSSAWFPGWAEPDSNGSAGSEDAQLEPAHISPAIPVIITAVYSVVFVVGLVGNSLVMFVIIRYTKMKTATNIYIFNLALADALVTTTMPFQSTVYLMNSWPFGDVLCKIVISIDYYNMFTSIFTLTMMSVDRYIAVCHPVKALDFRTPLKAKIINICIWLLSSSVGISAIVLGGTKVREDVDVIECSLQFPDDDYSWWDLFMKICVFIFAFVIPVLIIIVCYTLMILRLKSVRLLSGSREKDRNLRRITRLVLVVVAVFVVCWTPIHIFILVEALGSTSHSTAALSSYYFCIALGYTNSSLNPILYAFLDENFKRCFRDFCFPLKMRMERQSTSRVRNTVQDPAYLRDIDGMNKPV
# hMOR = hMOR (Homo sapiens, UniProt P35372); test: Radioligand binding assay (Eurofins Cerep), [3H]DAMGO displacement
# Chain of hMOR (P35372 whole entry): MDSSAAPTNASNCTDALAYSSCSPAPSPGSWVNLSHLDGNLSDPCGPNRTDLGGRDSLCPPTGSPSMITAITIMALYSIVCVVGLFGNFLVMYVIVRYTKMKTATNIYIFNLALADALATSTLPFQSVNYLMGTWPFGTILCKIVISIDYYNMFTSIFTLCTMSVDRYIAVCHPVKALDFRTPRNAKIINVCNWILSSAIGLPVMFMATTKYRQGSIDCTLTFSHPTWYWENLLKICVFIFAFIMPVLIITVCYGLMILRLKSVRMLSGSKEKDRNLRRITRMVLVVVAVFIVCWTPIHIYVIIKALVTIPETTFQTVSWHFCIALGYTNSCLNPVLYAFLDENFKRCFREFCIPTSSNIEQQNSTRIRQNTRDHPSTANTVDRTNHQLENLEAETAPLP
# [1] = alpha2A Ki ± SEM (nM), Table B1′
# [2] = Table B1′, read-out: DOR Ki ± SEM
# [3] = Table B1′, read-out: KOR Ki ± SEM
# [4] = Table B1′, read-out: MOR Ki ± SEM
# [5] = Table B1′, read-out: alpha2A Ki ± SEM
# [6] = Ki (nM ± SEM) a2A-AR, Table 3-2, 3 independent experiments
# [7] = Table 3-2, 3 independent experiments, read-out: Ki (nM ± SEM) DOR
# [8] = Table 3-2, 3 independent experiments, read-out: Ki (nM ± SEM) KOR
# [9] = Table 3-2, 3 independent experiments, read-out: Ki (nM ± SEM) MOR
# [10] = Table 3-3, 3 independent experiments, read-out: Ki (nM ± SEM) KOR
# [11] = Table 3-3, 3 independent experiments, read-out: Ki (nM ± SEM) MOR
# [12] = Table 3-3, 3 independent experiments, read-out: Ki (nM ± SEM) a2A-AR
# [13] = Table 3-3, 3 independent experiments, read-out: Ki (nM ± SEM) DOR
compound,measurement,setting,value
COc1ccccc1C1(O)CCN2CCC(=O)CC2C1 (stereo not drawn),Ki,α2A adrenergic receptor; [1],5750 ± 1170 nM
same,Ki,hDOR; [2],> 10000 nM
same,Ki,hKOR; [3],> 10000 nM
same,Ki,hMOR; [4],> 10000 nM
COC(=O)CC1CCN2CCC(c3ccccc3OC)=CC2C1 (stereo not drawn),Ki,α2A adrenergic receptor; [1],39 ± 3 nM
same,Ki,hDOR; [2],> 10000 nM
same,Ki,hKOR; [3],> 10000 nM
same,Ki,hMOR; [4],> 10000 nM
COC(=O)CC1CCN2CC=C(c3ccccc3OC)CC2C1 (stereo not drawn),Ki,α2A adrenergic receptor; [5],15 nM
same,Ki,hDOR; [2],> 10000 nM
same,Ki,hKOR; [3],> 10000 nM
same,Ki,hMOR; [4],> 10000 nM
COC(=O)CC1CCN2CCC(c3ccccc3)=CC2C1 (stereo not drawn),Ki,α2A adrenergic receptor; [5],5 ± 2 nM
same,Ki,hDOR; [2],> 10000 nM
same,Ki,hKOR; [3],683 ± 142 nM
same,Ki,hMOR; [4],7930 ± 1340 nM
COC(=O)CC1CCN2CC=C(c3ccccc3)CC2C1 (stereo not drawn),Ki,α2A adrenergic receptor; [5],7 ± 2 nM
same,Ki,hDOR; [2],> 10000 nM
same,Ki,hKOR; [3],957 ± 188 nM
same,Ki,hMOR; [4],6980 ± 1450 nM
COC(=O)C=C1CCN2CCC(O)(c3ccc(F)cc3)CC2C1 (stereo not drawn),Ki,α2A adrenergic receptor; [1],311 ± 73 nM
same,Ki,hDOR; [2],> 10000 nM
same,Ki,hKOR; [3],> 10000 nM
same,Ki,hMOR; [4],672 ± 222 nM
COC(=O)CC1CCN2CCC(O)(c3ccc(F)cc3)CC2C1 (stereo not drawn),Ki,α2A adrenergic receptor; [1],240 ± 63 nM
same,Ki,hDOR; [2],> 10000 nM
same,Ki,hKOR; [3],> 10000 nM
same,Ki,hMOR; [4],424 ± 203 nM
"COC(=O)CC1CCN2CCC(O)(c3ccccc3OC)CC2C1 (single isomer, unassigned)",Ki,α2A adrenergic receptor; [1],3470 ± 1790 nM
same,Ki,hDOR; [2],> 10000 nM
same,Ki,hKOR; [3],> 10000 nM
same,Ki,hMOR; [4],> 10000 nM
COC=C(C(=O)OC)C1CCN(CCc2c[nH]c3ccc(OC)cc23)CC1 [Compound 3-37],Ki,α2A adrenergic receptor; [6],3370 ± 586 nM
same,Ki,hDOR; [7],> 10000 nM
same,Ki,hKOR; [8],1300 ± 129 nM
same,SR: Selectivity Ratio (KiMOR/Kiα2A),hMOR; Table 3-2,0.22
same,Ki,hMOR; [9],733 ± 144 nM
COC(=O)CC1CCN(CCc2c[nH]c3ccc(OC)cc23)CC1 [Compound 3-38],Ki,α2A adrenergic receptor; [6],1590 ± 225 nM
same,Ki,hDOR; [7],> 10000 nM
same,Ki,hKOR; [8],8070 ± 810 nM
same,Ki,hMOR; [9],> 10000 nM
COC=C(C(=O)OC)C1CCN(CCc2c[nH]c3cc(OC)ccc23)CC1 [Compound 3-39],Ki,α2A adrenergic receptor; [6],> 10000 nM
same,Ki,hDOR; [7],> 10000 nM
same,Ki,hKOR; [8],9450 ± 2970 nM
same,Ki,hMOR; [9],> 10000 nM
COC(=O)CC1CCN(CCc2c[nH]c3cc(OC)ccc23)CC1 [Compound 3-40],Ki,α2A adrenergic receptor; [6],2840 ± 599 nM
same,Ki,hDOR; [7],> 10000 nM
same,Ki,hKOR; [8],> 10000 nM
same,Ki,hMOR; [9],> 10000 nM
COC=C(C(=O)OC)C1CCN(CCc2c[nH]c3c(OC)cccc23)CC1 [Compound 3-41],Ki,α2A adrenergic receptor; [6],4900 ± 829 nM
same,Ki,hDOR; [7],> 10000 nM
same,Ki,hKOR; [8],> 10000 nM
same,SR: Selectivity Ratio (KiMOR/Kiα2A),hMOR; Table 3-2,1.04
same,Ki,hMOR; [9],5130 ± 8.35 nM
COC(=O)CC1CCN(CCc2c[nH]c3ccccc23)CC1 [Compound 3-43],Ki,"α2A adrenergic receptor; read-out: Ki (nM ± SEM) a2A-AR, Table 3-3, 3 independent experiments",1840 ± 201 nM
same,Ki,"hDOR; read-out: Ki (nM ± SEM) DOR, Table 3-3, 3 independent experiments",> 10000 nM
same,Ki,hKOR; [10],> 10000 nM
same,Ki,hMOR; [11],8910 ± 1800 nM
COC(=O)CC1CCN(CCc2cn(CC(F)(F)F)c3ccccc23)CC1 [Compound 3-44],Ki,α2A adrenergic receptor; [12],1940 ± 410 nM
same,Ki,hDOR; [13],> 10000 nM
same,Ki,hKOR; [10],> 10000 nM
same,SR: Selectivity Ratio (KiMOR/Kiα2A),hMOR; Table 3-3,0.76
same,Ki,hMOR; [11],1480 ± 406 nM
COC(=O)CC1CCN(CCc2cn(CCc3c[nH]c4ccccc34)c3ccccc23)CC1 [Compound 3-45],Ki,α2A adrenergic receptor; [12],7030 ± 2020 nM
same,Ki,hDOR; [13],> 10000 nM
same,Ki,hKOR; [10],> 10000 nM
same,SR: Selectivity Ratio (KiMOR/Kiα2A),hMOR; Table 3-3,1.32
same,Ki,hMOR; [11],9280 ± 1730 nM
COC(=O)CC1CCN(CC(=O)N2CCc3c(OC)cccc32)CC1 [Compound 3-46],Ki,α2A adrenergic receptor; [12],6370 ± 1160 nM
same,Ki,hDOR; [13],> 10000 nM
same,Ki,hKOR; [10],> 10000 nM
same,Ki,hMOR; [11],> 10000 nM

# Source: US20260234147A1 (priority 2023, published 2026)
